# Laboratory results: US8507464B2, “Phosphoramidate alkylator prodrugs” (Threshold Pharmaceuticals, Inc., priority 2005, dated 2013)
# Where two headings read alike, the source gives them in different places.
# Tests used:
# H460 cell line = test: Anti-proliferation assay, hypoxia vs normoxia (Table 1A); details: for IC50: Homo sapiens; for HCR P: ratio of IC50 in normoxia and hypoxia
# NCI-H460 cells [1] = test: Antiproliferation assay - oxygen dependence; type: cell-based, human
# Description: . […] The calculated IC50 values (μM) are tabulated in Table Y1 (H460 cells) or Table Y2 (HT29 cells) below.
# NCI-H460 cells [2] = test: Antiproliferation assay (Alamar Blue), anoxia vs air
# [3] = NCI-H460, read-out: Hypoxia P (proliferation IC50)
# [4] = NCI-H460, read-out: Normoxia P (proliferation IC50)
# [5] = Homo sapiens, NCI-H460, read-out: IC50 in H460 cells, 0.6% O2
# [6] = Homo sapiens, NCI-H460; read-out: IC50 in H460 cells, N2
# [7] = Homo sapiens, NCI-H460, 2 h, read-out: IC50 H460 Air, air, 2 h exposure
# [8] = Homo sapiens, NCI-H460, 2 h, read-out: IC50 H460 Anoxia, anoxia, 2 h exposure
# [9] = Homo sapiens, NCI-H460; read-out: IC50 in H460 cells, Air
# [10] = Homo sapiens, NCI-H460, read-out: IC50 in H460 cells, Air
# [11] = Homo sapiens, NCI-H460, read-out: IC50 in H460 cells, N2
# [12] = Air; read-out: IC50 in H460 cells, Air
# [13] = N2; read-out: IC50 in H460 cells, N2
# [14] = read-out: IC50 in H460 cells, 0.6% O2
# [15] = read-out: IC50 H460 Air, air, 2 h exposure
# [16] = read-out: IC50 H460 Anoxia, anoxia, 2 h exposure
Compound,IC50 (NCI-H460 cells [1]; [5]) [µM],IC50 (NCI-H460 cells [2]; [7]) [µM],IC50 (NCI-H460 cells [2]; [8]) [µM],IC50 (NCI-H460 cells [1]; [10]) [µM],also measured
O=[N+]([O-])c1ccc(COP(=O)(NCCCCNP(=O)(OCc2ccc([N+](=O)[O-])o2)N(CCCl)CCCl)N(CCCl)CCCl)o1 (stereo not drawn) [Compound 20],–,–,–,–,IC50 (H460 cell line; [3]): 1 µM; IC50 (H460 cell line; [4]): 8.5 µM; HCR P (H460 cell line): 8
O=[N+]([O-])c1ccc(COP(=O)(NCCNP(=O)(OCc2ccc([N+](=O)[O-])o2)N(CCCl)CCCl)N(CCCl)CCCl)o1 (stereo not drawn) [Compound 21],–,–,–,–,IC50 (H460 cell line; [3]): 0.25 µM; IC50 (H460 cell line; [4]): 7.8 µM; HCR P (H460 cell line): 26
C[C@@H](CCl)NP(=O)(N[C@@H](C)CCl)OCc1cnc([N+](=O)[O-])n1C [Compound 38],45,> 100,0.33,–,"IC50 (NCI-H460 cells [1]; Homo sapiens, NCI-H460, read-out: IC50 in H460 cells, 1% O2): > 100 µM; IC50 (NCI-H460 cells [1]; [6]): 0.4 µM"
CC(C)[C@H](CCl)NP(=O)(N[C@@H](CCl)C(C)C)OCc1ccc([N+](=O)[O-])s1 [Compound 44],45,100,3,–,IC50 (NCI-H460 cells [1]; [9]): > 100 µM
CC(C)[C@@H](CCl)NP(=O)(N[C@H](CCl)C(C)C)OCc1ccc([N+](=O)[O-])o1 [Compound 46],50,> 100,5,–,IC50 (NCI-H460 cells [1]; [9]): 100 µM
CC(C)[C@@H](CCl)NP(=O)(N[C@H](CCl)C(C)C)OCc1ccc([N+](=O)[O-])s1 [Compound 47],60,> 100,4,–,IC50 (NCI-H460 cells [1]; [9]): 100 µM
Cn1c(COc2ccc(COP(=O)(NCCBr)NCCBr)cc2F)cnc1[N+](=O)[O-] [Compound 50],3,3,0.1,3,–
C[C@H](CCl)NP(=O)(N[C@H](C)CCl)OCc1ccc(OCc2cnc([N+](=O)[O-])n2C)c(F)c1 [Compound 51],7,7,3,–,IC50 (NCI-H460 cells [1]; [9]): 7 µM
C[C@H](CCl)NP(=O)(N[C@H](C)CCl)OCc1ccc(-c2ccc([N+](=O)[O-])s2)cc1 [Compound 52],10,20,15,–,IC50 (NCI-H460 cells [1]; [9]): 20 µM
O=[N+]([O-])c1ccc(-c2ccc(COP(=O)(NCCBr)NCCBr)cc2)s1 [Compound 53],5,10,3,10,–
COc1cc(COP(=O)(N[C@H](C)CCl)N[C@H](C)CCl)ccc1OCc1cnc([N+](=O)[O-])n1C [Compound 54],30,60,1,–,IC50 (NCI-H460 cells [1]; [9]): 60 µM; IC50 (NCI-H460 cells [1]; [6]): 1 µM
O=[N+]([O-])c1ccc(-c2ccc(COP(=O)(NCCBr)NCCBr)cc2)o1 [Compound 55],8,12,5,12,IC50 (NCI-H460 cells [1]; [11]): 5 µM
COc1cc(COP(=O)(NCCBr)NCCBr)ccc1OCc1cnc([N+](=O)[O-])n1C [Compound 56],8,10,0.5,10,IC50 (NCI-H460 cells [1]; [11]): 0.5 µM
CC(OP(=O)(NCCBr)NCCBr)c1ccc(OCc2cnc([N+](=O)[O-])n2C)c([N+](=O)[O-])c1 (stereo not drawn) [Compound 61],–,–,–,–,IC50 (NCI-H460 cells [1]; [12]): 4 µM; IC50 (NCI-H460 cells [1]; [13]): 0.3 µM; IC50 (NCI-H460 cells [1]; [14]): 4 µM; IC50 (NCI-H460 cells [2]; [15]): 4 µM; IC50 (NCI-H460 cells [2]; [16]): 0.3 µM
CCN(CCOP(=O)(NCCBr)NCCBr)C(=O)OCc1cnc([N+](=O)[O-])n1C [Compound 62],30,45,2,45,IC50 (NCI-H460 cells [1]; [11]): 2 µM
O=[N+]([O-])c1cnc(-c2ccc(COP(=O)(NCCBr)NCCBr)cc2)s1 [Compound 63],15,8,1,8,IC50 (NCI-H460 cells [1]; [11]): 1 µM
C[C@H](CBr)NP(=O)(N[C@H](C)CBr)OCc1cnc([N+](=O)[O-])n1C [Compound 66],–,–,–,–,"IC50 (NCI-H460 cells [1]; [14]): 20 µM; IC50 (NCI-H460 cells [1]; read-out: IC50 in H460 cells, N2): 0.3 µM; IC50 (NCI-H460 cells [2]; read-out: IC50 H460 Anoxia): 0.3 µM"
CCCn1c(COP(=O)(NCCBr)NCCBr)cnc1[N+](=O)[O-] [Compound 84],3,40,0.003,40,–
N#Cc1cc(C#CCOP(=O)(NCCBr)NCCBr)sc1[N+](=O)[O-] [Compound 98],–,–,–,–,IC50 (NCI-H460 cells [1]; [12]): 2 µM; IC50 (NCI-H460 cells [1]; [14]): 0.5 µM; IC50 (NCI-H460 cells [2]; [15]): 2 µM; IC50 (NCI-H460 cells [2]; [16]): 0.1 µM
CC#Cc1cc(COP(=O)(NCCBr)NCCBr)sc1[N+](=O)[O-] [Compound 99],–,–,–,–,IC50 (NCI-H460 cells [1]; [12]): 1 µM; IC50 (NCI-H460 cells [1]; [14]): 0.5 µM; IC50 (NCI-H460 cells [2]; [15]): 1 µM; IC50 (NCI-H460 cells [2]; [16]): 0.1 µM
Cc1csc(C(C)OP(=O)(NCCCl)NCCCl)c1[N+](=O)[O-] (stereo not drawn) [Compound 100],–,–,–,–,IC50 (NCI-H460 cells [1]; [12]): 35 µM; IC50 (NCI-H460 cells [1]; [13]): 0.5 µM; IC50 (NCI-H460 cells [1]; [14]): 10 µM; IC50 (NCI-H460 cells [2]; [15]): 35 µM; IC50 (NCI-H460 cells [2]; [16]): 0.5 µM
O=[N+]([O-])c1ccc(COP(=O)(NCCOS(=O)(=O)c2ccccc2)NCCOS(=O)(=O)c2ccccc2)o1 [Compound 106],0.7,–,–,–,"IC50 (NCI-H460 cells [1]; [9]): 4 µM; IC50 (NCI-H460 cells [1]; [6]): 0.1 µM; IC50 (NCI-H460 cells [2]; Homo sapiens, NCI-H460, 2 h, read-out: IC50 H460 Air): 3.5 µM; IC50 (NCI-H460 cells [2]; Homo sapiens, NCI-H460, 2 h, read-out: IC50 H460 Anoxia): 0.09 µM"
O=[N+]([O-])c1ccc(COP2(=O)N(CCBr)CCN2CCBr)o1 [Compound 109],10,13,0.3,15,IC50 (NCI-H460 cells [1]; [11]): 0.3 µM
O=[N+]([O-])c1ccc(COP2(=O)N(CCBr)CCN2CCBr)s1 [Compound 110],3,21,0.3,25,IC50 (NCI-H460 cells [1]; [11]): 0.3 µM
CC(C)(OP(N)(=O)N(CCCl)CCCl)c1ccc([N+](=O)[O-])cc1 (stereo not drawn) [Compound 113],> 100,≥ 100,1,> 100,IC50 (NCI-H460 cells [1]; [11]): 1 µM
CC(OP(N)(=O)N(CCCl)CCCl)c1cnc([N+](=O)[O-])n1C (stereo not drawn) [Compound 114],5,80,1,80,IC50 (NCI-H460 cells [1]; [11]): 1 µM
"O=[N+]([O-])c1ccc(COP(=O)(N(CCCl)CCCl)N(CCCl)CCCl)o1 [Compound P22, reference compound]",–,–,–,–,IC50 (H460 cell line; [3]): 4.5 µM; IC50 (H460 cell line; [4]): 3.5 µM; HCR P (H460 cell line): ca. 1
